Reference: US4633014A, “Substituted 3-hydrazinopropionates” (priority 1983, dated 1986)
Counter-ions that a name gives are not always drawn.

Legend:
[1] = test system: arrhythmia induced by an intravenous administration of calcium chloride; assay: Antiarrhythmic activity on a model of arrhythmia induced by intravenous calcium chloride (antagonism to calcium) in mice; type: in vivo; settings: white mice, 20-40 minutes before
Description: The specific (antiarrhythmic) effect and acute toxicity were studied.
The antiarrhythmic activity of the compounds according to the present invention was studied on a model of arrhythmia induced by an intravenous administration of calcium chloride. In experiments on white mice of both sexes with a mass of 18-25 g narcotized by urethane (1,200 mg/kg intraperitoneally) ECG in the second standard lead was recorded. A 2% solution of calcium chloride was introduced into the tail vein at a constant rate (0.01 ml for 2 sec). The dose of calcium chloride causing arrhythmia and the dose causing the heart arrest were determined. In the test groups the test compounds were administered intraperitoneally 20-40 minutes before the beginning of the experiment.

in vivo = settings: mouse, in vivo, ip
Description: (§1) The study of the effect provided by the compounds according to the present invention on the cardio-vascular system was carried out in experiments on white mice. The specific (antiarrhythmic) effect and acute toxicity were studied.
(§2) The acute toxicity of the compounds according to the present invention was determined in experiments on white mice with a mass of 20-25 g. The test compounds were administered intraperitoneally in the form of aqueous solutions or suspensions in Twin-80. Observation over the test animals was effected for 10 days.

white mice = assay: in vivo
Description: as §1, §2

[2] = white mice, intraperitoneal, relative to quinidine

Compound	Dose of calcium chloride causing arrythmia in animals under experiment ([1]; intraperitoneal dose 5 mg/kg)	Dose of calcium chloride causing death in animals under experiment ([1]; intraperitoneal dose 5 mg/kg)	Dose of calcium chloride causing arrythmia in animals under experiment ([1]; intraperitoneal dose 15 mg/kg)	Dose of calcium chloride causing death in animals under experiment ([1]; intraperitoneal dose 15 mg/kg)	LD50 at 240 h (in vivo) [mg/kg]	Relative toxisity to quinidine (white mice; mouse, in vivo, ip, 14400 min)	Dose of calcium chloride causing arrythmia in animals under experiment ([1]; intraperitoneal dose 25 mg/kg)	Dose of calcium chloride causing death in animals under experiment ([1]; intraperitoneal dose 25 mg/kg)	Relative toxisity to quinidine (white mice; [2])
COC(=O)CCN(C(=O)c1ccccc1F)N(C)C [I-31, 3-(2,2-dimethyl-I-(2'-fluorophenylcarbonyl)hydrazino)methylpropionate]	88,5 mg/kg	109,0 mg/kg	100,5 mg/kg	112,5 mg/kg	1600	10,2	–	–	–
COC(=O)CCN(C(=O)Nc1ccccc1)N(C)C [I-3, 3-(2,2-dimethyl-1-phenylcarbamoylhydrazino)-methylpropionate]	86,7 mg/kg	97,0 mg/kg	–	–	1350	8,6	124,7 mg/kg	130,0 mg/kg	–
C=CCNC(=S)N(CCC(=O)OC)N(C)C [I-6, 3-(2,2-dimethyl-1-allylthiocarbamoylhydrazino)methylpropionate]	97,9 mg/kg	110,4 mg/kg	–	–	3200	20,5	100,9 mg/kg	113,7 mg/kg	–
CN(C)N(CCC#N)C(=O)c1ccccc1F [I-63, 3-(2,2-dimethyl-1-2'-fluorobenzoylhydrazino)propionitrile]	101,5 mg/kg	117,3 mg/kg	112,3 mg/kg	128,0 mg/kg	1850	11,8	–	–	–
COC(=O)C(C)CN(C(=O)c1ccc(Br)cc1)N(C)C (stereo not drawn) [I-41]	90,6 mg/kg	110,0 mg/kg	102,5 mg/kg	122,0 mg/kg	2430	–	–	–	15,5
CN(C)N(CCC(N)=O)C(=S)Nc1ccccc1 [I-19, 3-(2,2-dimethyl-1-phenylthiocarbamoylhydrazino)propionamide]	98,3 mg/kg	112,0 mg/kg	110,5 mg/kg	130,0 mg/kg	1750	11,2	–	–	–
COC(=O)CC(C(=O)OC)N(C(=O)Nc1ccccc1)N(C)C (stereo not drawn) [I-56]	92,4 mg/kg	108,5 mg/kg	102,0 mg/kg	128,0 mg/kg	3200	20,5	–	–	–
C=CCNC(=S)N(CCC#N)N(C)C [I-22, 3-(2,2-dimethyl-1-allylthiocarbamoylhydrazino)propionitrile]	92,5 mg/kg	108,0 mg/kg	–	–	1450	9,3	130,0 mg/kg	146,0 mg/kg	–
CN(C)N(CCC(N)=O)C(=O)CCO [I-52, 3-(2,2-dimethyl-1-γ-hydroxypropanoylhydrazino)propionamide]	93 mg/kg	112,0 mg/kg	97,6 mg/kg	123,6 mg/kg	> 3000	> 19,2	–	–	–
COC(=O)CCN(C(=O)c1ccccc1COC(=O)c1ccccc1)N(C)C [I-33]	87,5 mg/kg	108,6 mg/kg	111,0 mg/kg	132,5 mg/kg	2850	18,2	–	–	–
COC(=O)N(CCC(N)=O)N(C)C [I-53, 3-(2,2-dimethyl-1methoxycarbonylhydrazino)propionamide]	98,5 mg/kg	132,0 mg/kg	121,0 mg/kg	138,5 mg/kg	1880	–	–	–	12,0
COC(=O)CCN(C(C)=O)N(C)C [I-24, 3-(2,2-Dimethyl-1-acetylhydrazino)methylpropionate]	108,0 mg/kg	132,0 mg/kg	116,5 mg/kg	140,3 mg/kg	1300	8,3	–	–	–
CCCCCC(=O)N(CCC(=O)OCC)N(C)C [I-43, 3-(2,2-dimethyl-1-hexanoylhydrazino)ethylpropionate]	94,0 mg/kg	105,0 mg/kg	108,5 mg/kg	120,3 mg/kg	1460	9,3	–	–	–
CC(=O)N(CCC(N)=O)N(C)C [I-47, 3-(2,2-dimethyl-1-acetylhydrazino)propionamide]	103 mg/kg	118 mg/kg	108 mg/kg	125 mg/kg	> 3000	> 19,2	–	–	–
CNC(=S)N(CCC(=O)O)N(C)C [I-59, Sodium salt of 3-(2,2-dimethyl-1-methylthiocarbamoylhydrazino)propionate]	93,4 mg/kg	108,6 mg/kg	112,5 mg/kg	130,0 mg/kg	1800	11,5	–	–	–
CCOC(=O)CCN(C(=O)c1ccccc1)N(C)C [I-44, 3-(2,2-dimethyl-1-benzoylhydrazino)ethylpropionate]	101,0 mg/kg	120,0 mg/kg	98,5 mg/kg	126,0 mg/kg	1650	10,5	–	–	–
